Values of other authors as cited in US20030175329A1, “Semisolid topical hormonal compositions and methods for treatment” (Cellegy Pharmaceuticals, Inc., priority 2001, published 2003).

Tests used:
[1] = tested on: healthy males; details: 200 mg IM weekly
[2] = 6 months
[3] = tested on: hypogonadal males; details: oral doses for at least 60 days; 23 hypogonadal males

## CCCCCCC(=O)O[C@H]1CC[C@H]2[C@@H]3CCC4=CC(=O)CC[C@]4(C)[C@H]3CC[C@]12C [testosterone enanthate]
[1]
  decrease of high-density lipoprotein cholesterol: 14-18%
[2]
  serum BT levels maintained within the normal range throughout the dosing interval: 39%
  serum DHT levels maintained within the normal range throughout the dosing interval: 70%
  serum E2 levels maintained within the normal range throughout the dosing interval: 35%
  serum T levels maintained within the normal range throughout the dosing interval: 72%

## CCCCCCCCCCC(=O)O[C@H]1CC[C@H]2[C@@H]3CCC4=CC(=O)CC[C@]4(C)[C@H]3CC[C@]12C [testosterone undecanoate]
[3]
  men with measurable improvement in sexual attitudes and performance: 61%

## C[C@]12CC[C@H]3[C@@H](CCC4=CC(=O)CC[C@@]43C)[C@@H]1CC[C@@H]2O [Testosterone, testosterone]
Following IM injection
  dose excreted in urine as glucuronide and sulfate conjugates of testosterone and its metabolites: about 90%
In vivo
  excreted mostly unconjugated in the feces: About 6%
